Measurements as given in patent US20230123334A1, “AMINO LIPID COMPOUND, PREPARATION METHOD THEREFOR, AND APPLICATION THEREOF” (SHENZHEN SHENXIN BIOTECHNOLOGY CO., LTD., priority 2020, published 2023).

Test system: HEK293 cells
Test: Preliminary screening as mRNA vectors, EGFP mRNA transfection of HEK293 cells
Type: cell-based
Conditions: EGFP mRNA 50 ng per well, 96-well plates; percentage of GFP fluorescent cells relative to total number of cells (Hoechst)
Protocol: Cell line: HEK293 cells (ATCC CRL-1573™)
Medium: DMEM supplemented with 10% fetal bovine serum (Invitrogen)
Screening: cell transfection on 96-well plates
Detection (readout): percentage of the number of GFP fluorescent cells relative to the total number of cells (the total number of cells was determined using nucleus dye Hoechst). Lipofectamine2000 (Invitrogen) was used as the positive control.
Method: the experimental method was basically the same with Example 4, and the mass of EGFP mRNA (TriLink) for transfection was 50 ng per well.

| Structure (SMILES) | Absolute mRNA transfection efficiency in HEK293 cells |
| --- | --- |
| CCCCCCSc1nc(NCCN(C)C)nc(SCCCCCC)n1 [Compound D1S6S6] | 0.7% |
| CCCCCCCSc1nc(NCCN(C)C)nc(SCCCCCC)n1 [Compound D1S6S7] | 1.0% |
| CCCCCCCCSc1nc(NCCN(C)C)nc(SCCCCCC)n1 [Compound D1S6S8] | 0.7% |
| CCCCCCCCCSc1nc(NCCN(C)C)nc(SCCCCCC)n1 [Compound D1S6S9] | 2.3% |
| CCCCCCCCCCSc1nc(NCCN(C)C)nc(SCCCCCC)n1 [Compound D1S6S10] | 0.7% |
| CCCCCCCCCCCSc1nc(NCCN(C)C)nc(SCCCCCC)n1 [Compound D1S6S11] | 0.4% |
| CCCCCCCCCCCCSc1nc(NCCN(C)C)nc(SCCCCCC)n1 [Compound D1S6S12] | 0.6% |
| CCCCCCCCCCCCCCSc1nc(NCCN(C)C)nc(SCCCCCC)n1 [Compound D1S6S14] | 0.8% |
| CCCCCCCCCCCCCCCSc1nc(NCCN(C)C)nc(SCCCCCC)n1 [Compound D1S6S15] | 1.2% |
| CCCCCCCCCCCCCCCCSc1nc(NCCN(C)C)nc(SCCCCCC)n1 [Compound D1S6S16] | 0.9% |
| CCCCCCCCCCCCCCCCCCSc1nc(NCCN(C)C)nc(SCCCCCC)n1 [Compound D1S6S18] | 15.9% |
| CCCCCCCSc1nc(NCCCCCC)nc(NCCN(C)C)n1 [Compound D1S7N6] | 5.1% |
| CCCCCCCNc1nc(NCCN(C)C)nc(SCCCCCCC)n1 [Compound D1S7N7] | 4.4% |
| CCCCCCCCNc1nc(NCCN(C)C)nc(SCCCCCCC)n1 [Compound D1S7N8] | 2.0% |
| CCCCCCCCCNc1nc(NCCN(C)C)nc(SCCCCCCC)n1 [Compound D1S7N9] | 10.0% |
| CCCCCCCCCCCNc1nc(NCCN(C)C)nc(SCCCCCCC)n1 [Compound D1S7N11] | 5.8% |
| CCCCCCCCCCCCNc1nc(NCCN(C)C)nc(SCCCCCCC)n1 [Compound D1S7N12] | 5.4% |
| CCCCCCCCCCCCCNc1nc(NCCN(C)C)nc(SCCCCCCC)n1 [Compound D1S7N13] | 12.8% |
| CCCCCCCCCCCCCCCNc1nc(NCCN(C)C)nc(SCCCCCCC)n1 [Compound D1S7N15] | 21.3% |
| CCCCCCCCCCCCCCCCNc1nc(NCCN(C)C)nc(SCCCCCCC)n1 [Compound D1S7N16] | 29.5% |
| CCCCCCCCCCCCCCCCCCNc1nc(NCCN(C)C)nc(SCCCCCCC)n1 [Compound D1S7N18] | 35.7% |
| CCCCCCCSc1nc(NCCN(C)C)nc(SCCCCCCC)n1 [Compound D1S7S7] | 14.9% |
| CCCCCCCCSc1nc(NCCN(C)C)nc(SCCCCCCC)n1 [Compound D1S7S8] | 16.7% |
| CCCCCCCCCSc1nc(NCCN(C)C)nc(SCCCCCCC)n1 [Compound D1S7S9] | 8.1% |
| CCCCCCCCCCSc1nc(NCCN(C)C)nc(SCCCCCCC)n1 [Compound D1S7S10] | 5.6% |

| Structure (SMILES) | Absolute mRNA transfection efficiency in HEK293 cells |
| --- | --- |
| CCCCCCCCCCCSc1nc(NCCN(C)C)nc(SCCCCCCC)n1 [Compound D1S7S11] | 4.1% |
| CCCCCCCCCCCCSc1nc(NCCN(C)C)nc(SCCCCCCC)n1 [Compound D1S7S12] | 3.1% |
| CCCCCCCCCCCCCCSc1nc(NCCN(C)C)nc(SCCCCCCC)n1 [Compound D1S7S14] | 3.1% |
| CCCCCCCCCCCCCCCSc1nc(NCCN(C)C)nc(SCCCCCCC)n1 [Compound D1S7S15] | 3.9% |
| CCCCCCCCCCCCCCCCSc1nc(NCCN(C)C)nc(SCCCCCCC)n1 [Compound D1S7S16] | 6.9% |
| CCCCCCCCCCCCCCCCCCSc1nc(NCCN(C)C)nc(SCCCCCCC)n1 [Compound D1S7S18] | 4.1% |
| CCCCCCCCSc1nc(NCCCCCC)nc(NCCN(C)C)n1 [Compound D1S8N6] | 2.4% |
| CCCCCCCCSc1nc(NCCCCCCC)nc(NCCN(C)C)n1 [Compound D1S8N7] | 2.0% |
| CCCCCCCCNc1nc(NCCN(C)C)nc(SCCCCCCCC)n1 [Compound D1S8N8] | 5.8% |
| CCCCCCCCCNc1nc(NCCN(C)C)nc(SCCCCCCCC)n1 [Compound D1S8N9] | 21.4% |
| CCCCCCCCCCCNc1nc(NCCN(C)C)nc(SCCCCCCCC)n1 [Compound D1S8N11] | 9.0% |
| CCCCCCCCCCCCNc1nc(NCCN(C)C)nc(SCCCCCCCC)n1 [Compound D1S8N12] | 17.9% |
| CCCCCCCCCCCCCNc1nc(NCCN(C)C)nc(SCCCCCCCC)n1 [Compound D1S8N13] | 15.5% |
| CCCCCCCCCCCCCCCNc1nc(NCCN(C)C)nc(SCCCCCCCC)n1 [Compound D1S8N15] | 23.8% |
| CCCCCCCCCCCCCCCCNc1nc(NCCN(C)C)nc(SCCCCCCCC)n1 [Compound D1S8N16] | 22.5% |
| CCCCCCCCCCCCCCCCCCNc1nc(NCCN(C)C)nc(SCCCCCCCC)n1 [Compound D1S8N18] | 19.3% |
| CCCCCCCCSc1nc(NCCN(C)C)nc(SCCCCCCCC)n1 [Compound D1S8S8] | 11.7% |
| CCCCCCCCCSc1nc(NCCN(C)C)nc(SCCCCCCCC)n1 [Compound D1S8S9] | 7.4% |
| CCCCCCCCCCSc1nc(NCCN(C)C)nc(SCCCCCCCC)n1 [Compound D1S8S10] | 8.6% |
| CCCCCCCCCCCSc1nc(NCCN(C)C)nc(SCCCCCCCC)n1 [Compound D1S8S11] | 3.0% |
| CCCCCCCCCCCCSc1nc(NCCN(C)C)nc(SCCCCCCCC)n1 [Compound D1S8S12] | 1.4% |
| CCCCCCCCCSc1nc(NCCCCCC)nc(NCCN(C)C)n1 [Compound D1S9N6] | 1.1% |
| CCCCCCCCCSc1nc(NCCCCCCC)nc(NCCN(C)C)n1 [Compound D1S9N7] | 0.3% |
| CCCCCCCCCSc1nc(NCCCCCCCC)nc(NCCN(C)C)n1 [Compound D1S9N8] | 2.9% |
